These results are taken from patent US20260285846A1, “REV-ERB AGONISTS FOR TH17-MEDIATED INFLAMMATORY DISORDERS” (UNIVERSITY OF FLORID RESEARCH FOUNDATION, iNCORPORATED, priority 2021, published 2026).

The target in the assay is REV-ERBα LBD (Homo sapiens, UniProt P20393, DEL324-422). The assay is described as follows: biochemical. The conditions noted are these: FRET assay; 6xHistag-REV-ERBα LBD with FITC-labeled SMRT corepressor peptide; read-out: REVERBα (Agonism of REV-ERBα, EC50). The gist of the method: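 Serially diluted ligands were incubated 2 h at 4° C, in triplicate, with E. coli-expressed His-REV-ERBα LBD (281-614 Δ324-422 or 381-579; 4 nM), Tb-anti-His (1 nM) and FITC-labelled SMRT peptide (400 nM). EC50 came from sigmoidal fits of the 520/495 nm TR-FRET ratio.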
Chain of REV-ERBα LBD (P20393 with tags, fused parts or gaps DEL324-422): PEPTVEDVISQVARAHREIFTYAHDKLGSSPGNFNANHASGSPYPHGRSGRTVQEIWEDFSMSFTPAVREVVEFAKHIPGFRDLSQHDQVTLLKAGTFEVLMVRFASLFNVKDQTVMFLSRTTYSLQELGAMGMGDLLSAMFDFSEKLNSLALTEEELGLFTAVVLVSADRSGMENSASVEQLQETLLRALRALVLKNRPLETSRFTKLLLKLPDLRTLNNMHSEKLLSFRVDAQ
Chain of REV-ERBα LBD (Q9Y618 2335-2356 partner limits assumed): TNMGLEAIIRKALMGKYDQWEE

Broadly, the EC50 is the concentration needed to bring the measured effect to its halfway point. For `CC(C)(C)Cn1cc([C@H](NS(=O)(=O)C2CC2)C(F)F)c2ccc(-c3cccnc3C(F)F)cc21` [Compound 87, (S)—N-(1-(6-(2-(difluoromethyl)pyridin-3-yl)-1-neopentyl-1H-indol-3-yl)-2,2-difluoroethyl)cyclopropanesulfonamide], the EC50 is less than 100 nM.

As to `CC(C)(C)Cn1cc([C@H](NS(=O)(=O)C2CC2)C(F)F)c2ccc(-c3ncc(F)cc3C#N)cc21` [Compound 88, (S)—N-(1-(6-(3-cyano-5-fluoropyridin-2-yl)-1-neopentyl-1H-indol-3-yl)-2,2-difluoroethyl)cyclopropanesulfonamide], the EC50 was less than 100 nM. The result for `CC(C)(C)Cn1cc([C@H](NS(=O)(=O)C2CC2)C(F)F)c2cc(F)c(-c3ncccc3F)cc21` [Compound 89, (S)—N-(2,2-difluoro-1-(5-fluoro-6-(3-fluoropyridin-2-yl)-1-neopentyl-1H-indol-3-yl)ethyl)cyclopropanesulfonamide] reads less than 100 nM; that for `CC(C)(C)Cn1cc([C@H](NS(=O)(=O)C2CC2)C(F)F)c2cc(F)c(-c3ncccc3Cl)cc21` [Compound 90, (S)—N-(1-(6-(3-chloropyridin-2-yl)-5-fluoro-1-neopentyl-1H-indol-3-yl)-2,2-difluoroethyl)cyclopropanesulfonamide], less than 100 nM. With `CC(C)(C)Cn1cc([C@H](NS(=O)(=O)C2CC2)C(F)F)c2cc(F)c(-c3ncc(F)cc3F)cc21` [Compound 91, (S)—N-(1-(6-(3,5-difluoropyridin-2-yl)-5-fluoro-1-neopentyl-1H-indol-3-yl)-2,2-difluoroethyl)cyclopropanesulfonamide] the figure was less than 100 nM; with `CC(C)(C)Cn1cc([C@H](NS(=O)(=O)C2CC2)C(F)F)c2cc(F)c(-c3ncc(Cl)cc3F)cc21` [Compound 92, (S)—N-(1-(6-(5-chloro-3-fluoropyridin-2-yl)-5-fluoro-1-neopentyl-1H-indol-3-yl)-2,2-difluoroethyl)cyclopropanesulfonamide], less than 100 nM; with `CC(C)(C)Cn1cc([C@H](NS(=O)(=O)C2CC2)C(F)F)c2cc(F)c(-c3ncc(F)cc3Cl)cc21` [Compound 93, (S)—N-(1-(6-(3-chloro-5-fluoropyridin-2-yl)-5-fluoro-1-neopentyl-1H-indol-3-yl)-2,2-difluoroethyl)cyclopropanesulfonamide], less than 100 nM.

As for `CC(C)(C)Cn1cc([C@H](NS(=O)(=O)C2CC2)C(F)F)c2cc(F)c(-c3ncc(F)cc3C#N)cc21` [Compound 94, (S)—N-(1-(6-(3-cyano-5-fluoropyridin-2-yl)-5-fluoro-1-neopentyl-1H-indol-3-yl)-2,2-difluoroethyl)cyclopropanesulfonamide], the EC50 was less than 100 nM. For `Cc1ncc(F)cc1-c1cc2c(cc1F)c([C@H](NS(=O)(=O)C1CC1)C(F)F)cn2CC(C)(C)C` [Compound 95, (S)—N-(2,2-difluoro-1-(5-fluoro-6-(5-fluoro-2-methylpyridin-3-yl)-1-neopentyl-1H-indol-3-yl)ethyl)cyclopropanesulfonamide], the EC50 is less than 100 nM.

Turning to `CC(C)(C)Cn1cc([C@H](NS(=O)(=O)C2CC2)C(F)F)c2cc(F)c(-c3cc(F)cnc3C#N)cc21` [Compound 96, (S)—N-(1-(6-(2-cyano-5-fluoropyridin-3-yl)-5-fluoro-1-neopentyl-1H-indol-3-yl)-2,2-difluoroethyl)cyclopropanesulfonamide], the EC50 was less than 100 nM.

Regarding `CC(C)(C)Cn1cc([C@H](NS(=O)(=O)C2CC2)C(F)F)c2cc(F)c(-c3cccnc3C(F)F)cc21` [Compound 97, (S)—N-(1-(6-(2-(difluoromethyl)pyridin-3-yl)-5-fluoro-1-neopentyl-1H-indol-3-yl)-2,2-difluoroethyl)cyclopropanesulfonamide], the EC50 is less than 100 nM. With `CC(C)(C)Cn1cc([C@H](NS(=O)(=O)C2CC2)C(F)F)c2cc(F)c(-c3c(C(F)(F)F)ccnc3C#N)cc21` [Compound 99, N-((1S)-1-(6-(2-cyano-4-(trifluoromethyl)pyridin-3-yl)-5-fluoro-1-neopentyl-1H-indol-3-yl)-2,2-difluoroethyl)cyclopropanesulfonamide] the figure was less than 100 nM. The result for `CC(C)(C)Cn1cc([C@H](NS(=O)(=O)C2CC2)C(F)F)c2ccc(-c3ncccc3C(F)F)cc21` [Compound 100, (S)—N-(1-(6-(3-(difluoromethyl)pyridin-2-yl)-1-neopentyl-1H-indol-3-yl)-2,2-difluoroethyl)cyclopropanesulfonamide] reads less than 100 nM. Take `CC(C)(C)Cn1cc([C@H](NS(=O)(=O)C2CC2)C(F)F)c2ccc(-c3ncccc3C3CC3)cc21` [Compound 101, (S)—N-(1-(6-(3-cyclopropylpyridin-2-yl)-1-neopentyl-1H-indol-3-yl)-2,2-difluoroethyl)cyclopropanesulfonamide]: the EC50 is less than 100 nM.

Turning to `CC(C)(C)Cn1cc([C@H](NS(=O)(=O)C2CC2)C(F)F)c2ccc(-c3ccncc3C(F)(F)F)cc21` [Compound 102, (S)—N-(2,2-difluoro-1-(1-neopentyl-6-(3-(trifluoromethyl)pyridin-4-yl)-1H-indol-3-yl)ethyl)cyclopropanesulfonamide], the EC50 was less than 100 nM. For the compound `CC(C)(C)Cn1cc([C@H](NS(=O)(=O)C2CC2)C(F)F)c2ccc(-c3c(C#N)cccc3C(F)F)cc21` [Compound 103, (S)—N-(1-(6-(2-cyano-6-(difluoromethyl)phenyl)-1-neopentyl-1H-indol-3-yl)-2,2-difluoroethyl)cyclopropanesulfonamide], the EC50 is less than 100 nM. The result for `CC(C)(C)Cn1cc([C@H](NS(=O)(=O)C2CC2)C(F)F)c2ccc(-c3c(F)cccc3C(F)F)cc21` [Compound 104, (S)—N-(1-(6-(2-(difluoromethyl)-6-fluorophenyl)-1-neopentyl-1H-indol-3-yl)-2,2-difluoroethyl)cyclopropanesulfonamide] reads less than 100 nM; that for `CC(C)(C)Cn1cc([C@H](NS(=O)(=O)C2CC2)C(F)F)c2ccc(-c3ccc(F)cc3C(F)F)cc21` [Compound 105, (S)—N-(1-(6-(2-(difluoromethyl)-4-fluorophenyl)-1-neopentyl-1H-indol-3-yl)-2,2-difluoroethyl)cyclopropanesulfonamide], less than 100 nM; that for `CC(C)(C)Cn1cc([C@H](NS(=O)(=O)C2CC2)C(F)F)c2ccc(-c3c(C(F)(F)F)ccc[n+]3[O-])cc21` [Compound 106, (S)-2-(3-(1-(cyclopropanesulfonamido)-2,2-difluoroethyl)-1-neopentyl-1H-indol-6-yl)-3-(trifluoromethyl)pyridine 1-oxide], 100 to 1000 nM.

As to `CC(C)(C)Cn1cc([C@H](NS(=O)(=O)C2CC2)C(F)F)c2ccc(-c3c[n+]([O-])ccc3C(F)(F)F)cc21` [Compound 107, (S)-3-(3-(1-(cyclopropanesulfonamido)-2,2-difluoroethyl)-1-neopentyl-1H-indol-6-yl)-4-(trifluoromethyl)pyridine 1-oxide], the EC50 was less than 100 nM. With `CC(C)(C)Cn1cc([C@H](NS(=O)(=O)C2CC2)C(F)F)c2cc(F)c(-c3c(C#N)cccc3C(F)(F)F)cc21` [Compound 108, N-((1S)-1-(6-(2-cyano-6-(trifluoromethyl)phenyl)-5-fluoro-1-neopentyl-1H-indol-3-yl)-2,2-difluoroethyl)cyclopropanesulfonamide] the figure was less than 100 nM.

As to `CC(C)(C)Cn1cc([C@H](NS(=O)(=O)C2CC2)C(F)F)c2cc(F)c(-c3c(C#N)cccc3C(F)F)cc21` [Compound 109, N-((1S)-1-(6-(2-cyano-6-(difluoromethyl)phenyl)-5-fluoro-1-neopentyl-1H-indol-3-yl)-2,2-difluoroethyl)cyclopropanesulfonamide], the concentration for a half-maximal effect (EC50) was less than 100 nM. The result for `CC(C)(C)Cn1cc([C@H](NS(=O)(=O)C2CC2)C(F)F)c2cc(F)c(-c3ccc(C#N)nc3C(F)(F)F)cc21` [Compound 110, (S)—N-(1-(6-(6-cyano-2-(trifluoromethyl)pyridin-3-yl)-5-fluoro-1-neopentyl-1H-indol-3-yl)-2,2-difluoroethyl)cyclopropanesulfonamide] reads less than 100 nM; that for `CC(C)(C)Cn1cc([C@H](NS(=O)(=O)C2CC2)C(F)F)c2cc(F)c(-c3ncccc3C(F)F)cc21` [Compound 111, (S)—N-(1-(6-(3-(difluoromethyl)pyridin-2-yl)-5-fluoro-1-neopentyl-1H-indol-3-yl)-2,2-difluoroethyl)cyclopropanesulfonamide], less than 100 nM; that for `CC(C)(C)Cn1cc([C@H](NS(=O)(=O)C2CC2)C(F)F)c2cc(F)c(-c3cncnc3C(F)(F)F)cc21` [Compound 112, (S)—N-(2,2-difluoro-1-(5-fluoro-1-neopentyl-6-(4-(trifluoromethyl)pyrimidin-5-yl)-1H-indol-3-yl)ethyl)cyclopropanesulfonamide], less than 100 nM. With `CC(C)(C)Cn1cc([C@H](NS(=O)(=O)C2CC2)C(F)F)c2cc(F)c(-c3cnccc3C(F)(F)F)cc21` [Compound 113, (S)—N-(2,2-difluoro-1-(5-fluoro-1-neopentyl-6-(4-(trifluoromethyl)pyridin-3-yl)-1H-indol-3-yl)ethyl)cyclopropanesulfonamide] the figure was less than 100 nM; with `CC(C)(C)Cn1cc([C@H](NS(=O)(=O)C2CC2)C(F)F)c2cc(F)c(-c3ccncc3C(F)(F)F)cc21` [Compound 114, (S)—N-(2,2-difluoro-1-(5-fluoro-1-neopentyl-6-(3-(trifluoromethyl)pyridin-4-yl)-1H-indol-3-yl)ethyl)cyclopropanesulfonamide], less than 100 nM; with `CC(C)(C)Cn1cc([C@H](NS(=O)(=O)C2CC2)C(F)F)c2cc(F)c(-c3ncccc3C3CC3)cc21` [Compound 115, (S)—N-(1-(6-(3-cyclopropylpyridin-2-yl)-5-fluoro-1-neopentyl-1H-indol-3-yl)-2,2-difluoroethyl)cyclopropanesulfonamide], less than 100 nM.
